Data as given in ChEMBL document CHEMBL3045446, “In vitro antimicrobial and antimycobacterial activity of some chalcones and their derivatives” (2013).
Values after ≈ are worked out from the molar mass of the structure shown.

Legend:
Assay type in all cases: functional
Salmonella typhi [1] = experiment: Antimicrobial activity against Salmonella enterica subsp. enterica serovar Typhi MTCC 733 assessed as growth inhibition after 24 hr by agar streak dilution method; settings: MTCC 733, 24 h
Staphylococcus aureus [2] = experiment: Antimicrobial activity against Staphylococcus aureus MTCC 96 assessed as diameter of growth inhibition zone after 24 hr
Shigella flexneri [3] = experiment: Antimicrobial activity against Shigella flexneri MTCC1457 assessed as growth inhibition after 24 hr by agar streak dilution method; settings: MTCC1457, 24 h
Candida albicans [4] = experiment: Antimicrobial activity against Candida albicans MTCC 183 assessed as growth inhibition after 48 hr by agar streak dilution method; settings: MTCC 183, 48 h
Escherichia coli [5] = experiment: Antimicrobial activity against Escherichia coli MTCC 739 assessed as diameter of growth inhibition zone after 24 hr
Shigella flexneri [6] = experiment: Antimicrobial activity against Shigella flexneri MTCC1457 assessed as diameter of growth inhibition zone after 24 hr
Pseudomonas aeruginosa [7] = experiment: Antimicrobial activity against Pseudomonas aeruginosa MTCC 741 assessed as growth inhibition after 24 hr by agar streak dilution method; settings: MTCC 741, 24 h
Klebsiella pneumoniae [8] = experiment: Antimicrobial activity against Klebsiella pneumoniae MTCC 109 assessed as diameter of growth inhibition zone after 24 hr
Proteus vulgaris [9] = experiment: Antimicrobial activity against Proteus vulgaris MTCC 1771 assessed as diameter of growth inhibition zone after 24 hr
Candida albicans [10] = experiment: Antimicrobial activity against Candida albicans MTCC 183 assessed as diameter of growth inhibition zone after 48 hr
Aspergillus fumigatus [11] = experiment: Antimicrobial activity against Aspergillus fumigatus MTCC 343 assessed as diameter of growth inhibition zone after 48 hr
Klebsiella pneumoniae [12] = experiment: Antimicrobial activity against Klebsiella pneumoniae MTCC 109 assessed as growth inhibition after 24 hr by agar streak dilution method; settings: MTCC 109, 24 h
Bacillus cereus [13] = experiment: Antimicrobial activity against Bacillus cereus MTCC 430 assessed as growth inhibition after 24 hr by agar streak dilution method; settings: MTCC 430, 24 h
[14] = system: Mycobacterium tuberculosis; experiment: Antituberculosis activity against Mycobacterium tuberculosis H37Rv assessed as growth inhibition after 12 to 28 days by L-J MIC method; settings: for MIC: Mycobacterium tuberculosis, H37Rv
Proteus vulgaris [15] = experiment: Antimicrobial activity against Proteus vulgaris MTCC 1771 assessed as growth inhibition after 24 hr by agar streak dilution method; settings: MTCC 1771, 24 h
Staphylococcus aureus [16] = experiment: Antimicrobial activity against Staphylococcus aureus MTCC 96 assessed as growth inhibition after 24 hr by agar streak dilution method; settings: MTCC 96, 24 h
Aspergillus niger [17] = experiment: Antimicrobial activity against Aspergillus niger MTCC 282 assessed as growth inhibition after 48 hr by agar streak dilution method; settings: MTCC 282, 48 h
Aspergillus clavatus [18] = experiment: Antimicrobial activity against Aspergillus clavatus MTCC 1323 assessed as diameter of growth inhibition zone after 48 hr
Salmonella typhi [19] = experiment: Antimicrobial activity against Salmonella enterica subsp. enterica serovar Typhi MTCC 733 assessed as diameter of growth inhibition zone after 24 hr
Aspergillus clavatus [20] = experiment: Antimicrobial activity against Aspergillus clavatus MTCC 1323 assessed as growth inhibition after 48 hr by agar streak dilution method; settings: MTCC 1323, 48 h
Aspergillus fumigatus [21] = experiment: Antimicrobial activity against Aspergillus fumigatus MTCC 343 assessed as growth inhibition after 48 hr by agar streak dilution method; settings: MTCC 343, 48 h
Pseudomonas aeruginosa [22] = experiment: Antimicrobial activity against Pseudomonas aeruginosa MTCC 741 assessed as diameter of growth inhibition zone after 24 hr
Aspergillus niger [23] = experiment: Antimicrobial activity against Aspergillus niger MTCC 282 assessed as diameter of growth inhibition zone after 48 hr
Bacillus cereus [24] = experiment: Antimicrobial activity against Bacillus cereus MTCC 430 assessed as diameter of growth inhibition zone after 24 hr
Escherichia coli [25] = experiment: Antimicrobial activity against Escherichia coli MTCC 739 assessed as growth inhibition after 24 hr by agar streak dilution method; settings: MTCC 739, 24 h

SMILES	MIC (Salmonella typhi [1])	diameter of the inhibition zone (DIZ) (Staphylococcus aureus [2])	MIC (Shigella flexneri [3])	MIC (Candida albicans [4])	diameter of the inhibition zone (DIZ) (Escherichia coli [5])	diameter of the inhibition zone (DIZ) (Shigella flexneri [6])	MIC (Pseudomonas aeruginosa [7])	diameter of the inhibition zone (DIZ) (Klebsiella pneumoniae [8])	diameter of the inhibition zone (DIZ) (Proteus vulgaris [9])	diameter of the inhibition zone (DIZ) (Candida albicans [10])	diameter of the inhibition zone (DIZ) (Aspergillus fumigatus [11])	MIC (Klebsiella pneumoniae [12])	MIC (Bacillus cereus [13])	growth inhibition (GI) [14]	MIC [14]	MIC (Proteus vulgaris [15])	MIC (Staphylococcus aureus [16])	MIC (Aspergillus niger [17])	diameter of the inhibition zone (DIZ) (Aspergillus clavatus [18])	diameter of the inhibition zone (DIZ) (Salmonella typhi [19])	further results
O=C(/C=C/c1ccc(Cl)cc1)c1ccc(Nc2cc(=O)oc3ccccc23)cc1	100 µg/mL (≈ 249 µM)	18 mm	50 µg/mL (≈ 124 µM)	100 µg/mL (≈ 249 µM)	12 mm	18 mm	100 µg/mL (≈ 249 µM)	20 mm	17 mm	15 mm	14 mm	50 µg/mL (≈ 124 µM)	100 µg/mL (≈ 249 µM)	95%	1000 µg/mL (≈ 2490 µM)	100 µg/mL (≈ 249 µM)	50 µg/mL (≈ 124 µM)	100 µg/mL (≈ 249 µM)	14 mm	15 mm	MIC (Aspergillus clavatus [20]): 100 µg/mL (≈ 249 µM); MIC (Aspergillus fumigatus [21]): 100 µg/mL (≈ 249 µM); diameter of the inhibition zone (DIZ) (Pseudomonas aeruginosa [22]): 10 mm; diameter of the inhibition zone (DIZ) (Aspergillus niger [23]): 12 mm; diameter of the inhibition zone (DIZ) (Bacillus cereus [24]): 14 mm; MIC (Escherichia coli [25]): 100 µg/mL (≈ 249 µM)
O=C(/C=C/c1ccccc1O)c1ccc(Nc2cc(=O)oc3ccccc23)cc1	100 µg/mL (≈ 261 µM)	15 mm	100 µg/mL (≈ 261 µM)	100 µg/mL (≈ 261 µM)	14 mm	13 mm	100 µg/mL (≈ 261 µM)	19 mm	15 mm	13 mm	17 mm	50 µg/mL (≈ 130 µM)	100 µg/mL (≈ 261 µM)	97%	500 µg/mL (≈ 1300 µM)	100 µg/mL (≈ 261 µM)	100 µg/mL (≈ 261 µM)	100 µg/mL (≈ 261 µM)	11 mm	13 mm	MIC (Aspergillus clavatus [20]): 100 µg/mL (≈ 261 µM); MIC (Aspergillus fumigatus [21]): 50 µg/mL (≈ 130 µM); diameter of the inhibition zone (DIZ) (Pseudomonas aeruginosa [22]): 15 mm; diameter of the inhibition zone (DIZ) (Aspergillus niger [23]): 16 mm; diameter of the inhibition zone (DIZ) (Bacillus cereus [24]): 13 mm; MIC (Escherichia coli [25]): 100 µg/mL (≈ 261 µM)
NNC(=O)c1ccncc1 [ISONIAZID]	–	–	–	–	–	–	–	–	–	–	–	–	–	99%	0.2 µg/mL (≈ 1.46 µM)	–	–	–	–	–	–
CC[C@@H](CO)NCCN[C@@H](CC)CO [ETHAMBUTOL]	–	–	–	–	–	–	–	–	–	–	–	–	–	99%	3.12 µg/mL (≈ 15.3 µM)	–	–	–	–	–	–
COc1ccc(-c2cc(-c3ccc(Nc4cc(=O)oc5ccccc45)cc3)nc(N)c2C#N)cc1OC	3.12 µg/mL (≈ 6.36 µM)	29 mm	6.25 µg/mL (≈ 12.7 µM)	6.25 µg/mL (≈ 12.7 µM)	26 mm	27 mm	6.25 µg/mL (≈ 12.7 µM)	28 mm	25 mm	27 mm	28 mm	3.12 µg/mL (≈ 6.36 µM)	6.25 µg/mL (≈ 12.7 µM)	99%	12.5 µg/mL (≈ 25.5 µM)	6.25 µg/mL (≈ 12.7 µM)	3.12 µg/mL (≈ 6.36 µM)	6.25 µg/mL (≈ 12.7 µM)	25 mm	27 mm	MIC (Aspergillus clavatus [20]): 6.25 µg/mL (≈ 12.7 µM); MIC (Aspergillus fumigatus [21]): 3.12 µg/mL (≈ 6.36 µM); diameter of the inhibition zone (DIZ) (Pseudomonas aeruginosa [22]): 25 mm; diameter of the inhibition zone (DIZ) (Aspergillus niger [23]): 27 mm; diameter of the inhibition zone (DIZ) (Bacillus cereus [24]): 26 mm; MIC (Escherichia coli [25]): 6.25 µg/mL (≈ 12.7 µM)
COc1ccc(-c2cc(-c3ccc(Nc4cc(=O)oc5ccccc45)cc3)nc(N)n2)cc1	50 µg/mL (≈ 115 µM)	22 mm	50 µg/mL (≈ 115 µM)	25 µg/mL (≈ 57.3 µM)	22 mm	19 mm	12.5 µg/mL (≈ 28.6 µM)	20 mm	24 mm	24 mm	20 mm	25 µg/mL (≈ 57.3 µM)	12.5 µg/mL (≈ 28.6 µM)	98%	62.5 µg/mL (≈ 143 µM)	12.5 µg/mL (≈ 28.6 µM)	12.5 µg/mL (≈ 28.6 µM)	12.5 µg/mL (≈ 28.6 µM)	23 mm	19 mm	MIC (Aspergillus clavatus [20]): 12.5 µg/mL (≈ 28.6 µM); MIC (Aspergillus fumigatus [21]): 25 µg/mL (≈ 57.3 µM); diameter of the inhibition zone (DIZ) (Pseudomonas aeruginosa [22]): 21 mm; diameter of the inhibition zone (DIZ) (Aspergillus niger [23]): 23 mm; diameter of the inhibition zone (DIZ) (Bacillus cereus [24]): 21 mm; MIC (Escherichia coli [25]): 25 µg/mL (≈ 57.3 µM)
CC(=O)N1CCN(c2ccc(OCC3COC(Cn4ccnc4)(c4ccc(Cl)cc4Cl)O3)cc2)CC1 (stereo not given) [KETOCONAZOLE]	–	–	–	1 µg/mL (≈ 1.88 µM)	–	–	–	–	–	33 mm	29 mm	–	–	–	–	–	–	≤ 3 µg/mL	31 mm	–	MIC (Aspergillus clavatus [20]): 1 µg/mL (≈ 1.88 µM); MIC (Aspergillus fumigatus [21]): 1 µg/mL (≈ 1.88 µM); diameter of the inhibition zone (DIZ) (Aspergillus niger [23]): 30 mm
NC(=O)c1cnccn1 [PYRAZINAMIDE]	–	–	–	–	–	–	–	–	–	–	–	–	–	99%	6.25 µg/mL (≈ 50.8 µM)	–	–	–	–	–	–
CO[C@H]1/C=C/O[C@@]2(C)Oc3c(C)c(O)c4c(O)c(c(/C=N/N5CCN(C)CC5)c(O)c4c3C2=O)NC(=O)/C(C)=C\C=C\[C@H](C)[C@H](O)[C@@H](C)[C@@H](O)[C@@H](C)[C@H](OC(C)=O)[C@@H]1C [RIFAMPIN]	–	–	–	–	–	–	–	–	–	–	–	–	–	99%	0.25 µg/mL (≈ 0.304 µM)	–	–	–	–	–	–
O=C(O)c1cn(C2CC2)c2cc(N3CCNCC3)c(F)cc2c1=O [CIPROFLOXACIN]	1 µg/mL (≈ 3.02 µM)	30 mm	≤ 3 µg/mL	–	32 mm	32 mm	1 µg/mL (≈ 3.02 µM)	33 mm	31 mm	–	–	1 µg/mL (≈ 3.02 µM)	1 µg/mL (≈ 3.02 µM)	–	–	1 µg/mL (≈ 3.02 µM)	1 µg/mL (≈ 3.02 µM)	–	–	30 mm	diameter of the inhibition zone (DIZ) (Pseudomonas aeruginosa [22]): 33 mm; diameter of the inhibition zone (DIZ) (Bacillus cereus [24]): 31 mm
